Here are results for 109 compounds from a melting point compilation (Tetko et al.).

Usually melting point stands for the temperature, or range, at which the solid turns liquid. Regarding `CC(=O)Nc1ccc(C#Cc2ccc(NC(C)=O)cc2)cc1`, the melting point was 281 °C.

In turn, `c1ccc(-c2nsc(N3CCCNCC3)n2)cc1` registered a melting point of 82 to 83 °C.

`O=[N+]([O-])c1cc(/C=N\c2ccccc2)ccc1/C=N/c1ccccc1` registered a melting point of 133 to 134 °C.

Compound `NC(=O)c1c(N)cccc1F` returned a melting point of 115 to 118 °C.

The compound `COc1ccc(C(=O)c2cccc(C)c2)cc1OC` displayed a melting point of 93 °C.

Consider `CC12C=CC=CC1NC(=C1C(=O)c3ccccc3C1=O)C=C2` (centres undefined), for which the melting point was 203 °C.

Consider `Cc1c(Br)cc(N)cc1Br`, for which the melting point was 91 °C.

`O=C(NC(CSSCC(NC(=O)OCc1ccccc1)C(=O)O)C(=O)O)OCc1ccccc1` (centres undefined) displayed a melting point of 84 °C.

In turn, `COc1ccc(Cn2cncn2)cc1` gave a melting point of 41.5 °C.

As for `CC(=O)NC(Cc1c[nH]c2ccccc12)C(N)=O` (centres undefined), the melting point came out at 195 °C.

As for `O=C(O)c1nc(Cl)ccc1Cl`, the melting point was found to be 151 °C.

Take `O=C(c1ccc[nH]1)C(Cl)(Cl)Cl`: the melting point lay within 72 to 74 °C.

The compound `CCCCCCCCCCCCSCCCCCCCCCCCC` came in with a melting point of 36 to 43 °C.

In turn, `CC1CCC(=O)C1=O` (centres undefined) yielded a melting point of 105 to 110 °C.

Turning to `NCC(O)CN`, the melting point was found to be 43 °C.

As to `CN1C2CC3CC1C(O3)C2O` (centres undefined), the melting point was 108 °C.

As for `Cc1cccnc1C#N`, the melting point was determined as 86 °C.

`COC(=O)Oc1c(F)c(F)c(F)c(F)c1F` returned a melting point of 29 °C.

`CC(C)(C)OC(=O)N1CCN(Cc2cccc(C=O)c2)CC1` registered a melting point of 67 to 68 °C.

`Clc1cc2oc3c(Cl)c(Cl)c(Cl)cc3c2cc1Cl` had a melting point of 196 °C.

With `Oc1ccc2c(c1)C13CCCCC1(O)C(C2)N(CC1CCC1)CC3` (centres undefined), the melting point is 216 °C.

For `FC(F)(F)c1ccc2c(Cl)ccnc2c1`, the melting point fell in the range of 69 to 73 °C.

Turning to `CC(=O)C(C#N)c1ccccc1[N+](=O)[O-]` (centres undefined), the melting point turned out to be 72 °C.

Consider `O=C(Nc1ccc(Cl)c(Cl)c1)c1cc(Cl)cc(Cl)c1O`, for which the melting point was 162 °C.

In turn, `COP(=O)(OC)OC(=CCl)c1ccc(Cl)cc1Cl` yielded a melting point of 69.5 °C.

Consider `O=C1CCC(F)(F)CC1`, for which the melting point came out at 39 °C.

In turn, `O=C(O)c1n[nH]c2ccc(Br)cc12` registered a melting point of 290 to 292 °C.

`N#Cc1cc2cc3c4c(c2oc1=O)CCCN4CCC3` came in with a melting point of 250 °C.

`CCCc1c(O)c(C(C)=O)cc(C(C)=O)c1O`: the melting point was 99 to 100 °C.

`CC(C)(C)OC(=O)N1CCN(c2ccccc2CO)CC1` came in with a melting point of 67 to 71 °C.

In turn, `N#Cc1cnn(-c2ccccc2)c1-n1cccc1` came in with a melting point of 81 to 83 °C.

In the case of `N#Cc1ccccc1N=C=S`, the melting point was in the range of 119 to 120 °C.

Compound `NC(=O)c1ccccc1C(F)(F)F` registered a melting point of 163 °C.

Compound `FC(F)(F)c1cnc(Cl)c(Cl)c1` returned a melting point of 8 to 9 °C.

`CC(/C=C(\C)c1ccc(-c2ccccc2)cc1)=NNS(=O)(=O)c1ccc([N+](=O)[O-])c([N+](=O)[O-])c1` returned a melting point of 200 to 201 °C.

`COc1cc2c(cc1O)C(C)=NCC2`: the melting point is 182 to 185 °C.

Compound `COc1ccc(C=CC(=O)c2cccc(C(=O)C=Cc3ccc(OC)cc3)c2)cc1` yielded a melting point of 135 °C.

The compound `CCOC(=O)C(CCc1ccccc1)NC(C)C(=O)N1CCCC1C(=O)O` (centres undefined) came in with a melting point of 144 °C.

On to `NC(=O)c1cccc(C(N)=O)c1`, for which the melting point came out at 280 °C.

Take `Cc1cc2c(c(C)c1C)CC2`: the melting point came out at 38 °C.

`O=C(O)Cc1ccccc1F` yielded a melting point of 63 °C.

Consider `CCCCI`, for which the melting point was -103 °C.

`NC(=O)c1ccccc1CO`: the melting point came out at 150 °C.

On to `CC(=O)OC1C(O)C2=C(C(=O)C(OC(C)=O)C3(CC3C)C2=O)C2(C)CCC(=O)C(C)(C)C12` (centres undefined), for which the melting point was found to be 201 °C.

Take `COC(=O)C1(S(=O)(=O)c2ccc(Cl)cc2)CCC1`: the melting point was determined as 76.2 °C.

Turning to `CCCCCc1ccc(NC(=O)c2ccc(C)cc2)cc1`, the melting point was found to be 129 °C.

Turning to `CC(=O)Nc1ccc(N=Nc2cc(C(C)C)c(N=Nc3ccc(NC(C)=O)cc3)cc2C)cc1`, the melting point came out at 284 °C.

Turning to `ClCc1cc(Br)cc2c1OCOC2`, the melting point came out at 103 °C.

`Cc1cccc2cccc(C)c12` registered a melting point of 65 °C.

With `O=C(NC(NC(=O)c1ccccc1)c1ccccc1OCc1ccccc1Cl)c1ccccc1`, the melting point was in the range of 241 to 243 °C.

In the case of `COC=C(C(=O)OC)c1ccccc1Oc1cc(Oc2ccccc2C#N)ncn1`, the melting point turned out to be 116 °C.

As for `Cc1ccc2c(c1)C(c1ccccc1)C(c1ccccc1)N2` (centres undefined), the melting point worked out at 155 °C.

`CC(C)CC1=C/C(=C/c2ccc(-c3cccc([N+](=O)[O-])c3)o2)C(=O)O1` registered a melting point of 164 °C.

Turning to `O=C(O)c1ccc(F)cc1[N+](=O)[O-]`, the melting point turned out to be 149 °C.

In the case of `c1ccn2cccc2c1`, the melting point is 75 °C.

`CCCCCNc1ccc(NCCCCC)c2c1C(=O)c1ccccc1C2=O` returned a melting point of 210 °C.

Turning to `Oc1c2cccc1Cc1cccc(c1O)Cc1cccc(c1O)Cc1cccc(c1O)C2`, the melting point was determined as 317 °C.

`COc1cc(C2Nn3c(nnc3-c3ccccc3)S2)ccc1O` (centres undefined) came in with a melting point of 149 °C.

For `CCC(C)I` (centres undefined), the melting point is -104 °C.

Turning to `C=C/C=C/C=C`, the melting point is -12 °C.

`CNC(=O)C(C)SCCSP(=O)(OC)OC` (centres undefined) showed a melting point of 43 °C.

In turn, `Cc1ccc(S(=O)(=O)CCO)cc1` registered a melting point of 54 to 58 °C.

As for `COC(=O)NS(=O)(=O)c1ccc(N)cc1`, the melting point is 230 °C.

Compound `COC(=O)CCc1cccc(CCC(=O)OC)c1` yielded a melting point of 51 °C.

The compound `CC(C)(C)c1cc(C(=O)O)cc(C(C)(C)C)c1` gave a melting point of 161 °C.

Regarding `Cc1c(C(=O)c2c[nH]n(C)c2=O)ccc(S(C)(=O)=O)c1C1=NOCC1`, the melting point came to 222 °C.

With `COc1cccc(C(=O)CBr)c1`, the melting point turned out to be 62 °C.

Turning to `CC1(C)C2CC3C(c4ccccc4)(C2=C(c2ccccc2)c2ccccc2)C31C` (centres undefined), the melting point was 164 °C.

`O=C(Nc1c(Cl)cc(Cl)cc1Cl)C(F)(F)C(F)(F)C(F)(F)C(F)(F)C(F)(F)C(F)(F)C(F)(F)C(F)(F)F` had a melting point of 115 °C.

`O=CC=Cn1ccnc1` registered a melting point of 118 °C.

As for `CCC(CO)NCCNC(CC)CO` (centres undefined), the melting point came to 89 °C.

Compound `CC1=C(C(=O)OCc2ccccc2)C(c2ccccc2)N(C)C(=O)N1C` (centres undefined) displayed a melting point of 86 °C.

Compound `CCOC(=O)C(C#N)=NNc1ccccc1[N+](=O)[O-]` gave a melting point of 102 to 103 °C.

`Cc1[nH]c2ccccc2c1C=O` returned a melting point of 204 to 205 °C.

`Nc1ncnc2c1ncn2C1CCC(CO)O1` (centres undefined) displayed a melting point of 185 °C.

`CCCCCCCCCCCCCCCCOCCOCCOCCOCCOCCOCCOCCOCCOCCOCCOCCOCCOCCOCCOCCOCCOCCOCCOCCOCCO` displayed a melting point of 35.4 to 39.6 °C.

In turn, `O=C(O)C1CC(=O)N(Cc2ccco2)C1` (centres undefined) had a melting point of 159 to 160 °C.

`CN1CCN(C(c2ccccc2)c2ccccc2)CC1`: the melting point came out at 106 °C.

Consider `ClCCI`, for which the melting point is -15.6 °C.

Turning to `O=C(O)c1cc2sccc2s1`, the melting point was found to be 222 °C.

Compound `CN1C(=O)C(=NNc2ccc(F)cc2)C(=O)N(C)C1=O` registered a melting point of 191 °C.

The compound `Nc1cccc(C=O)c1` gave a melting point of 30 °C.

For the compound `COC(=O)CCC(C)C1CCC2C3CCC4CC(=O)CCC4(C)C3CC(=O)C12C` (centres undefined), the melting point is 129 to 130 °C.

The compound `O=[N+]([O-])c1cc(Cl)cnc1Cl` returned a melting point of 38 to 42 °C.

In turn, `CC1=C(O)C(=O)CC(C)(C)C1` had a melting point of 89 °C.

`NC(CCO)c1ccccc1` (centres undefined) returned a melting point of 70 to 77 °C.

In the case of `C=C1CC1CC(N)C(=O)O` (centres undefined), the melting point was 282 °C.

Compound `CCOC(=O)c1c(C)oc(NC(=O)Nc2ccc(Cl)cc2)c1C(=O)OCC` returned a melting point of 169 to 170 °C.

For `Cc1c(C(=O)CCl)sc2ccc(Cl)cc12`, the melting point was in the range of 158 to 160 °C.

Take `CC(=O)NC1CCSC1=O` (racemic): the melting point was found to be 110 °C.

In turn, `NC(=O)C(F)(F)C(F)(F)C(F)(F)C(F)(F)C(F)(F)C(F)(F)F` displayed a melting point of 136 °C.

With `BrC1C2CC3CC(C2)CC1C3` (centres undefined), the melting point amounted to 139 °C.

On to `O=C(O)c1ccc(-c2cnco2)cc1`, for which the melting point lay within 300 to 301 °C.

`CCOCCOC(=O)c1ccccc1C(=O)OCCOCC`: the melting point turned out to be 34 °C.

Compound `Cn1cc(C(=O)Nc2ccc(F)cc2-c2ccc(Cl)c(Cl)c2)c(C(F)F)n1` displayed a melting point of 147 °C.

In turn, `Oc1ccc(Cl)cc1Sc1cc(Cl)ccc1O` registered a melting point of 174 °C.

`Cc1cc2nsnc2cc1C` had a melting point of 89 to 90 °C.

For `O=[N+]([O-])c1cccc2cn[nH]c12`, the melting point is 187 °C.

Compound `Nc1nc(-c2ccc(O)cc2)cs1` returned a melting point of 206 to 208 °C.

The compound `O=C1CC[C@H](C(=O)O)O1` displayed a melting point of 69 to 72 °C.

Turning to `CC(C)(C)C(=O)CCl`, the melting point was -1 °C.

Turning to `Cc1ccc(O)cc1`, the melting point came out at 35.5 °C.

Compound `O=C1c2ccccc2C(=O)N1CCCCCCCCBr` showed a melting point of 49 to 56 °C.

The compound `CC(C)COC(=O)c1ccc(C(=O)OCC(C)C)cc1` registered a melting point of 55 °C.

Compound `Oc1ccc2ncccc2c1` displayed a melting point of 190 to 195 °C.

`Nc1cccc2cc3ccccc3nc12` had a melting point of 108 °C.

Turning to `O=[N+]([O-])c1ccc(-c2cn3c(n2)sc2ccccc23)cc1`, the melting point was in the range of 285 to 286 °C.

`CCOC(=O)c1ccc(NC(=O)C(C(F)(F)F)C(F)(F)F)cc1` yielded a melting point of 166 °C.

For the compound `CC(C)(C)c1ccc(-c2noc(CCl)n2)cc1`, the melting point is 46 to 48 °C.
